Measurements: paper PMC11374673, “Discovery of isoquinoline sulfonamides as allosteric gyrase inhibitors with activity against fluoroquinolone-resistant bacteria” (Nature Chemistry, 2024)
Converted amounts (≈) assume the structure as drawn. “And” between values parts separate entries of the source, which are not always exact repeats. Identical values can stand only once. Like-named read-outs stand apart in the source and are kept apart here.

Key:
[1] = system: clinical isolates of E. coli; assay: MIC against clinical isolates and potentiation by 4 µM PMBN; format: cell-based, Escherichia coli; details: for MSC: with 4 µM PMBN; for MIC: Escherichia coli
Experimental: MIC was determined by broth microdilution. Single-colony cultures were grown to exponential phase (OD600 of 0.5) aerobically at 37 °C. In case of strains from the Keio collection, 50 µg ml^−1 kanamycin was supplemented to the media to ascertain a homogeneous population. The bacterial suspensions were diluted 100-fold in CAMHB and 50 µl was added to a twofold serial dilution series of test compounds (50 µl per well) in polypropylene 96-well microtitre plates to reach a volume of 100 µl. The plates were sealed with breathable membranes and incubated overnight at 37 °C with constant shaking (600 r.p.m.).

HepG2 = assay: Cytotoxicity assay (MTT); format: cell-based, human
HEK293T = assay: Cytotoxicity assay (MTT); format: cell-based, human; details: for MTT data (raw readout): HEK293T
Procedure, shortened: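 HEK293T cells, maintained at 37 °C and 7% CO2 in Dulbecco’s modified Eagle medium with GlutaMax, antibiotics and serum, were plated in clear 96-well plates in 100 µl medium containing 1% fetal bovine serum and left 24 h to attach. After 24 h compound exposure, MTT (0.40 mg ml^−1) was added for 2 h. Formazan was dissolved in 100 µl DMSO and absorbance measured at 570 nm. Background-corrected IC50 values came from variable-slope non-linear fits.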

E. coli W3110 = assay: MIC by broth microdilution; format: cell-based, Escherichia coli; details: Escherichia coli, W3110, WT, broth microdilution; read-out: MIC E. coli W3110
Procedure, shortened: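 Broth microdilution in CAMHB: twofold compound series inoculated with 100-fold-diluted bacteria from exponential growth (OD600 0.5, 37 °C); kanamycin 50 µg ml^−1 added for Keio collection strains. Overnight incubation, 37 °C, 600 r.p.m. shaking.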

## O=S(=O)(NC[C@@H]1CC[C@H](c2ccc(-c3ccc(F)cc3)cc2)N1)c1cccc2cnccc12 [Compound 101]
[1]; E. coli 1075, fold change in MIC after 4 µM PMBN
  FC: 8
[1]; E. coli 1075
  MSC: 6.25 µM
[1]; E. coli 552059.1, fold change in MIC after 4 µM PMBN
  FC: 16
[1]; E. coli 552059.1
  MSC: 0.8 µM
[1]; E. coli 552060.1, fold change in MIC after 4 µM PMBN
  FC: 16
[1]; E. coli 552060.1
  MSC: 0.8 µM
[1]; E. coli MVAST0072, fold change in MIC after 4 µM PMBN
  FC: 16
[1]; E. coli MVAST0072
  MSC: 0.8 µM
[1]; E. coli NCTC13463, fold change in MIC after 4 µM PMBN
  FC: 8
[1]; E. coli NCTC13463
  MSC: 0.4 µM
[1]; E. coli NCTC13846, fold change in MIC after 4 µM PMBN
  FC: 4
[1]; E. coli NCTC13846
  MSC: 3.1 µM
[1]; E. coli mcr-1, fold change in MIC after addition of 4 µM PMBN
  FC: 4
[1]; E. coli mcr-1
  MSC: 3.1 µM
[1]; E. coli 1075 (MDR), read-out: MIC
  MIC: 50 µM
[1]; E. coli 552059.1, read-out: MIC
  MIC: 12.5 µM
[1]; E. coli 552060.1, read-out: MIC
  MIC: 12.5 µM
[1]; E. coli MVAST0072 (MDR), read-out: MIC
  MIC: 12.5 µM
[1]; NCTC13463, E. coli NCTC13463 (ESBL), read-out: MIC
  MIC: 3.1 µM
[1]; NCTC13846, E. coli NCTC13846 (MDR, mcr-1)
  MIC: 12.5 µM
HepG2; HepG2, 0.023 uM, experiment n = 1, technical triplicates
  MTT data (raw readout): 0.470 and 0.394 and 0.364
HepG2; HepG2, 0.023 uM, experiment n = 2, technical triplicates
  MTT data (raw readout): 0.305 and 0.260 and 0.288
HepG2; HepG2, 0.068 uM, experiment n = 1, technical triplicates
  MTT data (raw readout): 0.452 and 0.420 and 0.368
HepG2; HepG2, 0.068 uM, experiment n = 2, technical triplicates
  MTT data (raw readout): 0.322 and 0.313 and 0.323
HepG2; HepG2, 0.21 uM, experiment n = 1, technical triplicates
  MTT data (raw readout): 0.390 and 0.419 and 0.407
HepG2; HepG2, 0.21 uM, experiment n = 2, technical triplicates
  MTT data (raw readout): 0.324 and 0.279 and 0.267
HepG2; HepG2, 0.62 uM, experiment n = 1, technical triplicates
  MTT data (raw readout): 0.368 and 0.340 and 0.370
HepG2; HepG2, 0.62 uM, experiment n = 2, technical triplicates
  MTT data (raw readout): 0.315 and 0.269 and 0.267
HepG2; HepG2, 1.85 uM, experiment n = 1, technical triplicates
  MTT data (raw readout): 0.439 and 0.392 and 0.378
HepG2; HepG2, 1.85 uM, experiment n = 2, technical triplicates
  MTT data (raw readout): 0.289 and 0.297 and 0.299
HepG2; HepG2, 5.6 uM, experiment n = 1, technical triplicates
  MTT data (raw readout): 0.403 and 0.384 and 0.371
HepG2; HepG2, 5.6 uM, experiment n = 2, technical triplicates
  MTT data (raw readout): 0.315 and 0.277 and 0.266
HepG2; HepG2, 16.7 uM, experiment n = 1, technical triplicates
  MTT data (raw readout): 0.208 and 0.211 and 0.189
HepG2; HepG2, 16.7 uM, experiment n = 2, technical triplicates
  MTT data (raw readout): 0.140 and 0.112 and 0.095
HepG2; Homo sapiens, HepG2, 24 h, MTT, 24 h
  IC50: 13 µM
HEK293T; HEK293T and HepG2
  cytotoxicity: substantial cytotoxicity
HEK293T; 0.023 uM, experiment n = 1, technical triplicates
  MTT data (raw readout): 1.467 and 1.369 and 1.336
HEK293T; 0.023 uM, experiment n = 2, technical triplicates
  MTT data (raw readout): 0.913 and 0.978 and 0.995
HEK293T; 0.068 uM, experiment n = 1, technical triplicates
  MTT data (raw readout): 1.354 and 1.258 and 1.005
HEK293T; 0.068 uM, experiment n = 2, technical triplicates
  MTT data (raw readout): 1.026 and 1.021 and 0.846
HEK293T; 0.21 uM, experiment n = 1, technical triplicates
  MTT data (raw readout): 1.223 and 1.254 and 1.173
HEK293T; 0.21 uM, experiment n = 2, technical triplicates
  MTT data (raw readout): 1.069 and 0.984 and 0.926
HEK293T; 0.62 uM, experiment n = 1, technical triplicates
  MTT data (raw readout): 1.112 and 0.937 and 0.942
HEK293T; 0.62 uM, experiment n = 2, technical triplicates
  MTT data (raw readout): 0.770 and 0.738 and 0.688
HEK293T; 1.85 uM, experiment n = 1, technical triplicates
  MTT data (raw readout): 0.725 and 0.641 and 0.684
HEK293T; 1.85 uM, experiment n = 2, technical triplicates
  MTT data (raw readout): 0.521 and 0.485 and 0.507
HEK293T; 5.6 uM, experiment n = 1, technical triplicates
  MTT data (raw readout): 0.749 and 0.695 and 0.667
HEK293T; 5.6 uM, experiment n = 2, technical triplicates
  MTT data (raw readout): 0.483 and 0.462 and 0.474
HEK293T; 16.7 uM, experiment n = 1, technical triplicates
  MTT data (raw readout): 0.450 and 0.504 and 0.484
HEK293T; 16.7 uM, experiment n = 2, technical triplicates
  MTT data (raw readout): 0.372 and 0.345
HEK293T; 50 uM, experiment n = 2, technical triplicates
  MTT data (raw readout): 0.011 and 0.012
HEK293T; Homo sapiens, HEK-293T, 24 h, MTT
  IC50: 3.2 µM
E. coli W3110
  MIC: 1.6 µM (≈ 0.738 µg/mL)
